Data reported in patent US20040067562A1, “Process for the production of L-lysine using coryneform bacteria” (priority 2002, published 2004).

How the values were obtained:
[1] = target: T1, aspartate kinase in the wild type (Corynebacterium glutamicum, UniProt P26512); assay: inhibition of wild type aspartate kinase by lysine (or analogue)/threonine mixtures; format: biochemical; details: wild type enzyme; lysine or analogue 100 mM in mixture with threonine (10 mM)
T1 construct: endogenous in cells
T1 sequence (P26512 whole entry): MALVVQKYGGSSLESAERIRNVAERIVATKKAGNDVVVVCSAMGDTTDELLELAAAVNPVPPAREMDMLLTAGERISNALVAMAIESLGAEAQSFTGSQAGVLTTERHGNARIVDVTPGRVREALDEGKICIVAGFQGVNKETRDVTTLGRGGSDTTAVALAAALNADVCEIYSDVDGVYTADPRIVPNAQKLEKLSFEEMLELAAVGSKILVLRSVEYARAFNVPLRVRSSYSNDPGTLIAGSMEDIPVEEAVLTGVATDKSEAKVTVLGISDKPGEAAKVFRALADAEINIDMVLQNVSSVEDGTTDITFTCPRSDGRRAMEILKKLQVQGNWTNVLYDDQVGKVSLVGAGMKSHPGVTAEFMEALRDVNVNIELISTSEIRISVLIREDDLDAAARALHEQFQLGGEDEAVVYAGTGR
T1 sequence (P26512 250-421): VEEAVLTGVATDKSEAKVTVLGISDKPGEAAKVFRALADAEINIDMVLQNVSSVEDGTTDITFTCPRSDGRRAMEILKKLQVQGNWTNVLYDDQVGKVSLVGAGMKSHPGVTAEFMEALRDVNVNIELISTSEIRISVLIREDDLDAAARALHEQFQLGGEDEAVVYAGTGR
Excerpt: (§1) The Corynebacterium glutamicum strain DM1725 was produced by multiple untargeted and targeted mutagenesis including genetic engineering methods, selection and mutant selection from C. glutamicum ATCC13032. The strain is resistant to the lysine analogue S-(2-aminoethyl)-L-cysteine and has two identical complete copies of the LysC gene that code for a feedback-resistant aspartate kinase. The two copies are located at the LysC gene site on the chromosome. […] The strain is streptomycin resistant.

[2] = test system: feedback-resistant aspartate kinase; assay: inhibition of feedback-resistant aspartate kinase by lysine (or analogue)/threonine mixtures; format: biochemical, Corynebacterium glutamicum; details: feedback-resistant enzyme of strain DM1725; lysine or analogue 100 mM in mixture with threonine (10 mM)
Excerpt: as §1

SMILES | residual activity of aspartate kinase [1] [%] | inhibition of aspartate kinase [2]
NCCSC[C@H](N)C(=O)O [S-(2-aminoethyl)-L-cysteine] | 10 | insensitive to inhibition
NCCCC[C@H](N)C(=O)O [lysine] | 10 | insensitive to inhibition
